# Tests used:
# [1] = test system: rice; assay: Test B flood test rice; format: in vivo, Oryza sativa
# Summary of the method: (§1)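 Read-out is a visual response score from 0 (no effect) to 10 (complete control), assigned by comparison with untreated controls. Treatment was applied at the 2-leaf stage, and plants stayed in the greenhouse for twelve to sixteen days before scoring.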
# [2] = test system: soybean; assay: Test B pre/postemergence soybean; format: in vivo, Glycine max
# Summary of the method: (§2)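 Herbicidal effect was estimated by eye on a ten-point control scale after plants spent twelve to sixteen days in a greenhouse following soil or foliar treatment. Foliar sprays targeted plants at one to four leaves; all doses were formulated in a non-phytotoxic solvent with surfactant.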
# [3] = test system: morningglory; assay: Test B pre/postemergence morningglory; format: in vivo, Ipomoea hederacea
# Summary of the method: as §2
# [4] = test system: surinam grass; assay: Test B pre/postemergence surinam grass; format: in vivo, Brachiaria decumbens
# Summary of the method: as §2
# [5] = test system: sugar beet; assay: Test B pre/postemergence sugar beet; format: in vivo, Beta vulgaris; details: for Plant response rating, Sugarbeets: Rate 250 g/ha
# Summary of the method: as §2
# [6] = test system: smallflower flatsedge; assay: Test B flood test smallflower flatsedge; format: in vivo, Cyperus difformis
# Summary of the method: as §1
# [7] = test system: blackgrass; assay: Test B pre/postemergence blackgrass; format: in vivo, Alopecurus myosuroides
# Summary of the method: as §2
# [8] = test system: corn; assay: Test B pre/postemergence corn; format: in vivo, Zea mays
# Summary of the method: as §2
# [9] = test system: bedstraw; assay: Test B pre/postemergence bedstraw; format: in vivo, Galium aparine
# Summary of the method: as §2
# [10] = test system: giant foxtail; assay: Test B pre/postemergence giant foxtail; format: in vivo, Setaria faberii
# Summary of the method: as §2
# [11] = test system: cocklebur; assay: Test B pre/postemergence cocklebur; format: in vivo, Xanthium strumarium
# Summary of the method: as §2
# [12] = test system: velvetleaf; assay: Test B pre/postemergence velvetleaf; format: in vivo, Abutilon theophrasti; details: for Plant response rating, Velvetleaf: Rate 250 g/ha
# Summary of the method: as §2
# [13] = test system: pigweed; assay: Test B pre/postemergence pigweed; format: in vivo, Amaranthus retroflexus
# Summary of the method: as §2
# [14] = test system: wild oat; assay: Test B pre/postemergence wild oat; format: in vivo, Avena fatua; details: for Plant response rating, Wild oats: Rate 250 g/ha
# Summary of the method: as §2
# [15] = test system: wheat; assay: Test B pre/postemergence wheat; format: in vivo, Triticum aestivum; details: for Plant response rating, Wheat: Rate 250 g/ha
# Summary of the method: as §2
# [16] = test system: rape; assay: Test B pre/postemergence rape; format: in vivo, Brassica napus
# Summary of the method: as §2
# [17] = Postemergence (flood test species), Rate 125 g/ha, scale of 0 to 10 where 0 is no effect and 10 is complete control
# [18] = Rate 62 g/ha, Postemergence section, flood test species, scale of 0 to 10 where 0 is no effect and 10 is complete control
# [19] = Rate 250 g/ha, Postemergence (flood test), scale 0 to 10, 0 is no effect, 10 is complete control
# [20] = Rate 500 g/ha, listed under Postemergence (flood test species), scale 0 to 10, 0 no effect, 10 complete control
# [21] = Postemergence, Rate 125 g/ha, scale of 0 to 10 where 0 is no effect and 10 is complete control
# [22] = Preemergence, Rate 62 g/ha, scale 0 to 10 (0 no effect, 10 complete control)
# [23] = Preemergence, Rate 125 g/ha, scale 0 to 10 (0 no effect, 10 complete control)
# [24] = Preemergence, Rate 250 g/ha, scale of 0 to 10 where 0 is no effect and 10 is complete control
# [25] = Preemergence, Rate 500 g/ha, scale 0 to 10 (0 no effect, 10 complete control)
# [26] = Rate 62 g/ha, Postemergence, scale of 0 to 10 where 0 is no effect and 10 is complete control
# [27] = Rate 250 g/ha, Postemergence, scale 0 to 10, 0 is no effect, 10 is complete control
# [28] = Rate 500 g/ha, Postemergence, scale 0 to 10, 0 no effect, 10 complete control
# [29] = Postemergence, Rate 250 g/ha, scale 0 to 10, 0 no effect, 10 complete control
# [30] = Postemergence, Rate 62 g/ha, scale 0 to 10, 0 is no effect, 10 is complete control
# [31] = Preemergence, Rate 125 g/ha, 0 is no effect, 10 is complete control
# [32] = Preemergence, scale of 0 to 10 where 0 is no effect and 10 is complete control
# [33] = Postemergence, scale 0 to 10, 0 is no effect, 10 is complete control
smiles,measurement,setting,value
CC(C)N(C(=O)n1oc(=O)n(C2CCCCC2)c1=O)c1ccc(F)cc1 [Compound 110],Rice plant response rating,[1]; [17],0
same,Rice plant response rating,[1]; [18],0
same,"Plant response rating, Rice",[1]; [19],0
same,Rice plant response rating,[1]; [20],0
same,Soybean plant response rating,[2]; [21],3
same,Soybean plant response rating,[2]; [22],1
same,"Plant response rating, Soybean",[2]; [23],5
same,"Plant response rating, Soybean",[2]; [24],5
same,Soybean plant response rating,[2]; [25],6
same,Soybean plant response rating,[2]; [26],3
same,"Plant response rating, Soybean",[2]; [27],5
same,Soybean plant response rating,[2]; [28],7
same,Morningglory plant response rating,[3]; [21],5
same,Morningglory plant response rating,[3]; [29],5
same,Morningglory plant response rating,[3]; [22],0
same,"Plant response rating, Morningglory",[3]; [23],0
same,"Plant response rating, Morningglory",[3]; [24],0
same,Morningglory plant response rating,[3]; [25],0
same,Morningglory plant response rating,[3]; [26],4
same,Morningglory plant response rating,[3]; [28],5
same,B. signalgrass plant response rating,[4]; [30],0
same,B. signalgrass plant response rating,[4]; [29],0
same,B. signalgrass plant response rating,[4]; [22],3
same,"Plant response rating, B. signalgrass",[4]; [23],7
same,B. signalgrass plant response rating,[4]; [25],7
same,B. signalgrass plant response rating,"[4]; Rate 125 g/ha, Postemergence, scale 0 to 10, 0 no effect, 10 complete control",0
same,B. signalgrass plant response rating,"[4]; Rate 500 g/ha, Postemergence, scale of 0 to 10 where 0 is no effect and 10 is complete control",3
same,Sugarbeets plant response rating,[5]; [21],3
same,Sugarbeets plant response rating,[5]; [22],0
same,Sugarbeets plant response rating (0 to 10 scale),[5]; [31],1
same,"Plant response rating, Sugarbeets",[5]; [32],2
same,Sugarbeets plant response rating,[5]; [25],5
same,Sugarbeets plant response rating,[5]; [26],0
same,"Plant response rating, Sugarbeets",[5]; [33],3
same,Sugarbeets plant response rating,[5]; [28],3
same,S. Flatsedge plant response rating,[6]; [17],0
same,S. Flatsedge plant response rating,[6]; [18],0
same,"Plant response rating, S. Flatsedge",[6]; [19],0
same,S. Flatsedge plant response rating,[6]; [20],0
same,Blackgrass plant response rating,[7]; [21],4
same,Blackgrass plant response rating,[7]; [29],4
same,Blackgrass plant response rating,[7]; [22],0
same,"Plant response rating, Blackgrass",[7]; [23],3
same,"Plant response rating, Blackgrass",[7]; [24],7
same,Blackgrass plant response rating,[7]; [25],7
same,Blackgrass plant response rating,[7]; [26],1
same,Blackgrass plant response rating,[7]; [28],8
same,Corn plant response rating,[8]; [21],0
same,Corn plant response rating,[8]; [29],0
same,Corn plant response rating,[8]; [22],2
same,"Plant response rating, Corn",[8]; [23],3
same,"Plant response rating, Corn",[8]; [24],4
same,Corn plant response rating,[8]; [25],4
same,Corn plant response rating,[8]; [26],0
same,Corn plant response rating,[8]; [28],4
same,Bedstraw plant response rating,[9]; [30],2
same,Bedstraw plant response rating,[9]; [29],8
same,Bedstraw plant response rating,[9]; [22],0
same,"Plant response rating, Bedstraw",[9]; [23],4
same,"Plant response rating, Bedstraw",[9]; [24],5
same,Bedstraw plant response rating,[9]; [25],7
same,Giant foxtail plant response rating,[10]; [21],2
same,Giant foxtail plant response rating,[10]; [29],5
same,Giant foxtail plant response rating,[10]; [22],10
same,"Plant response rating, Giant foxtail",[10]; [23],10
same,"Plant response rating, Giant foxtail",[10]; [24],10
same,Giant foxtail plant response rating,[10]; [25],10
same,Giant foxtail plant response rating,[10]; [26],0
same,Giant foxtail plant response rating,[10]; [28],8
same,Cocklebur plant response rating,[11]; [21],2
same,Cocklebur plant response rating,[11]; [29],2
same,Cocklebur plant response rating,[11]; [22],0
same,"Plant response rating, Cocklebur",[11]; [23],0
same,"Plant response rating, Cocklebur",[11]; [24],0
same,Cocklebur plant response rating,[11]; [25],0
same,Cocklebur plant response rating,[11]; [26],0
same,Cocklebur plant response rating,[11]; [28],3
same,Velvetleaf plant response rating,[12]; [21],0
same,Velvetleaf plant response rating,[12]; [22],0
same,Velvetleaf plant response rating (0 to 10 scale),[12]; [31],5
same,"Plant response rating, Velvetleaf",[12]; [32],5
same,Velvetleaf plant response rating,[12]; [25],7
same,Velvetleaf plant response rating,[12]; [26],0
same,"Plant response rating, Velvetleaf",[12]; [33],1
same,Velvetleaf plant response rating,[12]; [28],2
same,Redroot pigweed plant response rating,[13]; [21],4
same,Redroot pigweed plant response rating,[13]; [22],3
same,"Plant response rating, Redroot pigweed",[13]; [23],6
same,"Plant response rating, Redroot pigweed",[13]; [24],7
same,Redroot pigweed plant response rating,[13]; [25],8
same,Redroot pigweed plant response rating,[13]; [26],3
same,"Plant response rating, Redroot pigweed",[13]; [27],5
same,Redroot pigweed plant response rating,[13]; [28],6
same,Wild oats plant response rating,[14]; [21],0
same,Wild oats plant response rating,[14]; [22],0
same,Wild oats plant response rating (0 to 10 scale),[14]; [31],3
same,"Plant response rating, Wild oats",[14]; [32],5
same,Wild oats plant response rating,[14]; [25],5
same,Wild oats plant response rating,[14]; [26],0
same,"Plant response rating, Wild oats",[14]; [33],0
same,Wild oats plant response rating,[14]; [28],2
same,Wheat plant response rating,[15]; [21],0
same,Wheat plant response rating,[15]; [22],0
same,Wheat plant response rating (0 to 10 scale),[15]; [31],0
same,"Plant response rating, Wheat",[15]; [32],0
same,Wheat plant response rating,[15]; [25],3
same,Wheat plant response rating,[15]; [26],0
same,"Plant response rating, Wheat",[15]; [33],0
same,Wheat plant response rating,[15]; [28],1
same,Rape plant response rating,[16]; [21],4
same,Rape plant response rating,[16]; [29],4
same,Rape plant response rating,[16]; [22],0
same,"Plant response rating, Rape",[16]; [23],1
same,"Plant response rating, Rape",[16]; [24],4
same,Rape plant response rating,[16]; [25],8
same,Rape plant response rating,[16]; [26],2
same,Rape plant response rating,[16]; [28],6
